Test results published in patent US5157019A, “Serine protease inhibitors” (Monsanto Company, priority 1991, dated 1992).
Ends that are not written are not given here.

System: complement activation
Experiment: Reverse passive arthus reaction (RPAR), histopathology of injection sites
Assay type: in vivo, guinea pigs
Design: key: 0 indicating no acute inflamation; 1 indication minimal acute inflammation; 2 indicating mild acute inflammation; 3 indicating moderate acute inflammation
Settings: guinea pig, intradermal injection of peptide without antibody
Experimental: These exemplary peptide inhibitors (peptides 13, 7 and 27) were assayed for in vivo activity in inhibiting complement activation using the reverse passive arthus reaction (RPAR). RPAR is a model of complement-mediated damage due to activation via interaction with antigen/antibody complexes. Female guinea pigs (400 gm) were pretreated intracardially with bovine serum albumin and Evans blue dye. Ninety minutes later they received bilateral intradermal injections of peptide inhibitor or control material in the thoracolumbar region. Injection sites were excised postmortem and fixed in 10% buffered formalin for pathological evaluation. The peptides were administered to obtain an initial level of […] in the circulatory system.
The histopathological results are outlined below. The degree of inflammation was scored as follows: 0 indicating no acute inflamation; 1 indication minimal acute inflammation; 2 indicating mild acute inflammation; and 3 indicating moderate acute inflammation.

## AGRSLNPNRVTFKANRPFLVFIREVPLNTIIFLGRVANP [Peptide 27]
  Degree of inflammation, mean score, protease inhibitor only: 1
